Test results taken from PubChem BioAssay (NCI).
Where “and” joins values, the source holds several entries; their conditions need not be identical. Equal values may be shown once.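 Briefly, cells in 96-well plates were exposed to five compound concentrations for 48 h, and endpoints were estimated by linear interpolation. The concentration for 50% growth inhibition is given as GI50. At the TGI there is no net growth.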

Assays:
Assay in all cases: inhibition of tumour cell growth, NCI panel, 48 h
HCC-2998 colon = system: HCC-2998 colon
MCF7 breast = system: MCF7 breast
OVCAR-4 ovarian = system: OVCAR-4 ovarian
SF-295 CNS = system: SF-295 CNS
SK-MEL-28 melanoma = system: SK-MEL-28 melanoma
SN12C renal = system: SN12C renal
UACC-257 melanoma = system: UACC-257 melanoma
UACC-62 melanoma = system: UACC-62 melanoma

Structure (SMILES)	TGI (HCC-2998 colon)	TGI (MCF7 breast)	GI50 (OVCAR-4 ovarian)	TGI (OVCAR-4 ovarian)	TGI (SF-295 CNS)	TGI (SK-MEL-28 melanoma)	TGI (SN12C renal)	TGI (UACC-257 melanoma)	GI50 (UACC-62 melanoma)	TGI (UACC-62 melanoma)	GI50 (HCC-2998 colon)	GI50 (MCF7 breast)	GI50 (SF-295 CNS) [µM]	GI50 (SK-MEL-28 melanoma)	GI50 (SN12C renal)	GI50 (UACC-257 melanoma)
Nc1nc(N)c2c(n1)CCC(S(=O)(=O)c1ccc3ccccc3c1)C2 (configuration not stated)	26.7 µM	> 100 µM	4.31 µM	> 100 µM	> 100 µM	> 100 µM	> 100 µM	> 100 µM	0.678 µM	> 100 µM						
CC#CC#C/C(=C/C=CC(=O)OC)SC	> 100 µM	> 100 µM		> 100 µM	> 100 µM	> 100 µM	> 100 µM	> 100 µM		> 100 µM						
C=CC(=O)N1CCC[C@@H](n2nc(-c3ccc(Oc4ccccc4)cc3)c3c(N)ncnc32)C1	> 10 µM	> 10 µM	> 10 µM	> 10 µM	> 10 µM	> 10 µM	> 10 µM	> 10 µM	> 4.22 µM	> 10 µM	> 10 µM	> 8.82 µM	> 9.42	> 10 µM	> 4.69 µM	> 10 µM
COc1ccc(/C=C/C(=O)/C=C(O)/C=C/c2ccc(OC)c(OC)c2)cc1OC	34.9 µM	> 100 µM	27.6 µM	> 100 µM	> 100 µM	44 µM	90.9 µM	64.8 µM	10.8 µM	38.3 µM	14.5 µM	0.493 µM	6.36	18.4 µM	3.5 µM	33.9 µM
CCCCCCCCCC[C@H](O)[C@H]1CC[C@@H]([C@@H](O)CC[C@H](O)[C@@H]2CCC(CCCCCCC[C@@H](O)CC3=C[C@H](C)OC3=O)O2)O1 (some centres not stated)	19 µM	9.6 µM and 22.9 µM		19.6 µM	15 µM	5.44 µM and 39 µM	8.23 µM and 30.6 µM	4.47 µM and 13.8 µM		3.13 µM		3 µM	1.22	7.62 µM	8.18 µM	0.921 µM
O=c1/c(=C\c2ccc(Br)cc2)sc2n1C(c1ccc(Br)cc1)C1=C(N=2)c2ccc3ccccc3c2OCC1 (configuration not stated)	> 100 µM	> 100 µM	> 100 µM	> 100 µM	> 100 µM	> 100 µM		> 100 µM	> 100 µM	> 100 µM	> 100 µM	> 100 µM	> 100	> 100 µM		> 100 µM
Nc1n[nH]c2ccc([C@@H]3Nc4ccc5cn[nH]c5c4[C@H]4C5CCC(C5)[C@@H]34)cc12 (some centres not stated)	> 50.2 µM	> 76.8 µM	2.63 µM	> 100 µM	13.2 µM	> 100 µM	> 100 µM	> 100 µM	0.389 µM	34.3 µM	0.962 µM	0.347 µM	0.277	1.05 µM	0.747 µM	12.5 µM
O=C(Nc1cccc(-n2cc(-c3ccncc3)c(-c3ccc(Cl)c(O)c3)n2)c1)Nc1ccc(Cl)c(Cl)c1	13.9 µM	> 32.5 µM	1.69 µM	> 32.5 µM		9.85 µM	> 32.5 µM	3.16 µM	1.11 µM	5.21 µM	2.89 µM	1.06 µM		1.46 µM	1.31 µM	0.93 µM
c1ccc(CC(Nc2cccnc2)c2ccccc2)cc1 (configuration not stated)	39.9 µM	> 100 µM		> 100 µM	43.3 µM	> 100 µM	50.8 µM	49.8 µM		36.9 µM						
Cc1cnc(-c2ccc(-c3ccc(NC(=O)Nc4c(F)cc(F)cc4F)cc3F)c3c2C(=O)NC3)[nH]1	> 100 µM and 11.6 µM	6.53 µM and 12.8 µM	1.44 µM	3.2 µM	18.8 µM and 18.4 µM	9.69 µM and 5.48 µM	4.57 µM and 3.41 µM	10.2 µM and 14.5 µM	0.14 µM and 0.223 µM	2.1 µM and 2.39 µM	2.01 µM and 1.61 µM	0.141 µM and 0.41 µM		1.16 µM and 0.642 µM	1.29 µM and 0.432 µM	0.333 µM and 0.97 µM
CN(C)CCCCNc1ccc(NCCCCN(C)C)c2c1C(=O)c1c(O)ccc(O)c1C2=O	2.93 µM	2.99 µM	1.42 µM	2.76 µM	3.3 µM	31.7 µM	25.8 µM	32.3 µM	15.3 µM	29.1 µM	1.58 µM	1.59 µM	1.75	17.8 µM	13.1 µM	18.4 µM
CC(=O)ON=C1C=CC(=C(C#N)c2ccccc2)C=C1	32.2 µM	12.8 µM	5.51 µM	22 µM	12.7 µM	61.4 µM	20.9 µM	18.3 µM	3.78 µM	25.7 µM	11.7 µM	0.319 µM	1.83	8.77 µM	2.49 µM	2.32 µM
CCN(CC)CC(O)c1cc(-c2ccc(Cl)cc2)nc2c(C)c(Cl)ccc12 (configuration not stated)	3.23 µM	2.9 µM	1.9 µM	3.35 µM	3.5 µM	3.17 µM	3.22 µM	3.81 µM	1.84 µM	3.39 µM	1.77 µM	1.5 µM	1.86	1.78 µM	1.5 µM	2.12 µM
CC(C)C1=CC2=C(C(=O)C1=O)C13CCCC(C)(C)C1CC2OC3=O (configuration not stated)	46.3 µM	55.5 µM		40.6 µM	> 100 µM	31.7 µM	43.6 µM	71 µM		27.4 µM						
O=C1c2ccc3c4c(ccc(c24)C(=O)N1CCNCc1ccccc1)C(=O)N(CCNCc1ccccc1)C3=O	3.15 µM		1.41 µM	2.71 µM	5.2 µM	7.13 µM	3.05 µM	3.45 µM	1.74 µM	3.35 µM	1.74 µM		1.78	2.59 µM	1.63 µM	1.69 µM
CC/C(=C(/c1ccc(OCCN(C)C)cc1)c1ccc(OC(=O)CCCCCCCCC(=O)c2c(C)[nH]c(/C=C3\N=C(c4ccc[nH]4)C=C3OC)c2C)cc1)c1ccccc1	> 100 µM	10.9 µM				> 100 µM	> 100 µM	> 100 µM	3.37 µM	18.1 µM	> 100 µM	0.161 µM		43.9 µM	7.55 µM	62.5 µM
Cc1c(Cl)c(C)c(Cl)c(O)c1Cl	50.6 µM	> 100 µM		> 100 µM	> 100 µM	> 100 µM	> 100 µM	87 µM		37.4 µM						
COC(=O)[C@]12CC[C@@H](C)[C@H](C)[C@@H]1C1=CC[C@@H]3[C@@](C)(CC#N)C4=C(C[C@@]3(C)[C@]1(C)CC2)OC[C@]4(C)C=O	33 µM	11.4 µM	4.15 µM	> 100 µM	40.6 µM	21.3 µM		18.3 µM			5.81 µM	3.05 µM	13.2	4.11 µM		3.73 µM

Structure (SMILES)	TGI (HCC-2998 colon)	TGI (MCF7 breast)	GI50 (OVCAR-4 ovarian)	TGI (OVCAR-4 ovarian)	TGI (SF-295 CNS)	TGI (SK-MEL-28 melanoma)	TGI (SN12C renal)	TGI (UACC-257 melanoma)	GI50 (UACC-62 melanoma)	TGI (UACC-62 melanoma)	GI50 (HCC-2998 colon)	GI50 (MCF7 breast)	GI50 (SF-295 CNS) [µM]	GI50 (SK-MEL-28 melanoma)	GI50 (SN12C renal)	GI50 (UACC-257 melanoma)
CCCCOC(=O)c1c(C)[nH]c(/C=C2\N=C(c3ccc[nH]3)C=C2OC)c1C	2.06 µM	2.65 µM	0.177 µM	5.04 µM	1.32 µM	2.8 µM	2.54 µM	3.35 µM	0.127 µM	0.339 µM	0.138 µM	0.162 µM	0.253	0.509 µM	0.226 µM	0.488 µM
O=C(NN1C(=O)CSC1c1c(Cl)cccc1Cl)C(O)c1ccccc1 (configuration not stated)	> 100 µM	> 100 µM	29.1 µM	> 100 µM	> 100 µM	> 100 µM	> 100 µM	94.5 µM	7.15 µM	43.5 µM	64.3 µM	44.2 µM	37.3	63.7 µM	34.9 µM	31 µM
CC(=O)Nc1cc2c3c(cccc3c1)-c1ccccc1-2	52.5 µM	> 100 µM	> 100 µM	> 100 µM	22.6 µM	> 100 µM	> 100 µM	> 100 µM	40 µM	> 100 µM	18.8 µM	> 100 µM	5.13	> 100 µM	0.72 µM	90.3 µM
Nc1c(C(=O)Nc2cccc(C(F)(F)F)c2)sc2nc3c(cc12)CCCCCC3	> 100 µM	11.2 µM	1.61 µM	4 µM	3.6 µM	15.9 µM	13 µM	22.7 µM	3.25 µM	21.5 µM	12.3 µM	2.44 µM	1.58	3.36 µM	3.15 µM	4.37 µM
C=C(Br)COc1ccc2c(C)cc(=O)oc2c1	> 100 µM	19.7 µM		> 100 µM		> 100 µM	> 100 µM	> 100 µM								
COc1cc2c(cc1OCCCN1CCN(C(=S)SCCC(C#N)(c3ccccc3)c3ccccc3)CC1)N=C[C@@H]1CCCN1C2=O	2.94 µM	1.53 µM	2.15 µM	> 43.7 µM	3.81 µM	3.07 µM	2.5 µM	3.9 µM	1.13 µM	2.38 µM	1.51 µM	0.33 µM	1.11	1.65 µM	0.82 µM	1.99 µM
CC[C@@]1(O)C(=O)OCc2c1cc1n(c2=O)Cc2c-1nc1cc(F)c(C)c3c1c2[C@@H](NC(=O)CO)CC3	3.51 µM		0.206 µM	> 100 µM	0.338 µM	4.56 µM		1.02 µM	< 0.01 µM	0.117 µM	0.163 µM		< 0.01	0.176 µM	< 0.01 µM	0.047 µM
CC1(C)C(CC(=O)O)CCCC1CC(=O)O (configuration not stated)		> 100 µM		> 100 µM	> 100 µM	> 100 µM	> 100 µM	> 100 µM		> 100 µM						
COCCn1c2c([n+](Cc3cnccn3)c1C)C(=O)c1ccccc1C2=O	0.0373 µM		< 0.01 µM	0.012 µM	0.0843 µM	0.0419 µM	0.0316 µM	< 0.01 µM	0.0185 µM	0.0454 µM	< 0.01 µM		0.027	0.0164 µM	< 0.01 µM	< 0.01 µM
Nc1cc(N)c2nc(NCCc3ccc(Cl)c(Cl)c3)cnc2c1		13.3 µM	1.81 µM	3.26 µM	29.6 µM	26.2 µM	23.9 µM		14.1 µM	27.8 µM		3.08 µM	15.3	13.4 µM	11.7 µM	
CN1CCN(CCC=C2c3ccccc3Sc3ccc(S(=O)(=O)N(C)C)cc32)CC1	3.21 µM and 6.84 µM	4 µM and 14 µM	9.5 µM and 12.8 µM	> 100 µM and 58.9 µM		3.22 µM and 3.35 µM	34.6 µM and > 49.3 µM	3.73 µM and 4.03 µM	1.66 µM and 1.76 µM	3.21 µM and 3.48 µM	1.55 µM and 2.57 µM	1.91 µM and 2.81 µM		1.8 µM and 1.77 µM	6.23 µM and 13.8 µM	2.02 µM and 1.8 µM
CCn1ncc(N=O)c1N	> 100 µM	> 100 µM			> 100 µM	> 100 µM	> 100 µM	> 100 µM		> 100 µM						
NC(=O)c1csc(-c2ccc(CO)o2)n1		> 100 µM		> 100 µM	> 100 µM	> 100 µM	> 100 µM	> 100 µM		> 100 µM						
O=C(O)c1ccc(/C=N/N=C2c3ccccc3-c3ccccc32)cc1		> 100 µM		> 100 µM	32.6 µM	> 100 µM	> 100 µM	> 100 µM		> 100 µM						
COc1cc(C2CC(c3cccc(Nc4ccnc5cc(Cl)ccc45)c3)=NN2c2ccccc2)cc(OC)c1OC (configuration not stated)	33.8 µM	> 100 µM			> 100 µM	> 100 µM	> 100 µM	> 100 µM	0.869 µM	> 100 µM	5.32 µM	2.74 µM	3.55	10.4 µM	> 100 µM	10.5 µM
Cc1c(C(=O)c2ccccc2)[n+](=O)c2cc(F)c(F)cc2n1[O-]		21 µM	3.11 µM	> 100 µM	3.46 µM			6.1 µM	1.51 µM	2.83 µM		4.35 µM	1.95			2.49 µM
CN(C)C1CN(C(=O)c2cc(-c3ccc4ncnc(N5CCc6cc(F)c(Cl)cc65)c4c3)cnc2N)C1	> 100 µM	> 100 µM			> 100 µM	> 100 µM	> 100 µM	> 28.1 µM	0.43 µM	2.16 µM	0.71 µM	0.303 µM	1.18	0.869 µM	0.385 µM	1.54 µM
